Test results: US9452986B2, “6-heteroaryloxy- or 6-aryloxy-quinoline-2-carboxamides and method of use” (AbbVie Inc., priority 2014, dated 2016)

Biological target: recombinant human Nav1.7 (Homo sapiens (Human), UniProt Q15858)
Assay: FRET-based membrane potential assay, recombinant human sodium channel Nav1.7
Type: cell-based
Conditions: FRET-Membrane Potential Nav1.7 IC50
Procedure, shortened: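 Channel activation used veratridine at its EC80, set by a dilution curve each experiment, together with Leiurus scorpion venom, added 3 min after compound. Membrane-potential ratio signals from FLIPR Tetra in HEPES-buffered HBSS were fitted to a four-parameter Hill equation for percent inhibition and IC50.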

Sequence of recombinant human Nav1.7 (Q15858 whole entry): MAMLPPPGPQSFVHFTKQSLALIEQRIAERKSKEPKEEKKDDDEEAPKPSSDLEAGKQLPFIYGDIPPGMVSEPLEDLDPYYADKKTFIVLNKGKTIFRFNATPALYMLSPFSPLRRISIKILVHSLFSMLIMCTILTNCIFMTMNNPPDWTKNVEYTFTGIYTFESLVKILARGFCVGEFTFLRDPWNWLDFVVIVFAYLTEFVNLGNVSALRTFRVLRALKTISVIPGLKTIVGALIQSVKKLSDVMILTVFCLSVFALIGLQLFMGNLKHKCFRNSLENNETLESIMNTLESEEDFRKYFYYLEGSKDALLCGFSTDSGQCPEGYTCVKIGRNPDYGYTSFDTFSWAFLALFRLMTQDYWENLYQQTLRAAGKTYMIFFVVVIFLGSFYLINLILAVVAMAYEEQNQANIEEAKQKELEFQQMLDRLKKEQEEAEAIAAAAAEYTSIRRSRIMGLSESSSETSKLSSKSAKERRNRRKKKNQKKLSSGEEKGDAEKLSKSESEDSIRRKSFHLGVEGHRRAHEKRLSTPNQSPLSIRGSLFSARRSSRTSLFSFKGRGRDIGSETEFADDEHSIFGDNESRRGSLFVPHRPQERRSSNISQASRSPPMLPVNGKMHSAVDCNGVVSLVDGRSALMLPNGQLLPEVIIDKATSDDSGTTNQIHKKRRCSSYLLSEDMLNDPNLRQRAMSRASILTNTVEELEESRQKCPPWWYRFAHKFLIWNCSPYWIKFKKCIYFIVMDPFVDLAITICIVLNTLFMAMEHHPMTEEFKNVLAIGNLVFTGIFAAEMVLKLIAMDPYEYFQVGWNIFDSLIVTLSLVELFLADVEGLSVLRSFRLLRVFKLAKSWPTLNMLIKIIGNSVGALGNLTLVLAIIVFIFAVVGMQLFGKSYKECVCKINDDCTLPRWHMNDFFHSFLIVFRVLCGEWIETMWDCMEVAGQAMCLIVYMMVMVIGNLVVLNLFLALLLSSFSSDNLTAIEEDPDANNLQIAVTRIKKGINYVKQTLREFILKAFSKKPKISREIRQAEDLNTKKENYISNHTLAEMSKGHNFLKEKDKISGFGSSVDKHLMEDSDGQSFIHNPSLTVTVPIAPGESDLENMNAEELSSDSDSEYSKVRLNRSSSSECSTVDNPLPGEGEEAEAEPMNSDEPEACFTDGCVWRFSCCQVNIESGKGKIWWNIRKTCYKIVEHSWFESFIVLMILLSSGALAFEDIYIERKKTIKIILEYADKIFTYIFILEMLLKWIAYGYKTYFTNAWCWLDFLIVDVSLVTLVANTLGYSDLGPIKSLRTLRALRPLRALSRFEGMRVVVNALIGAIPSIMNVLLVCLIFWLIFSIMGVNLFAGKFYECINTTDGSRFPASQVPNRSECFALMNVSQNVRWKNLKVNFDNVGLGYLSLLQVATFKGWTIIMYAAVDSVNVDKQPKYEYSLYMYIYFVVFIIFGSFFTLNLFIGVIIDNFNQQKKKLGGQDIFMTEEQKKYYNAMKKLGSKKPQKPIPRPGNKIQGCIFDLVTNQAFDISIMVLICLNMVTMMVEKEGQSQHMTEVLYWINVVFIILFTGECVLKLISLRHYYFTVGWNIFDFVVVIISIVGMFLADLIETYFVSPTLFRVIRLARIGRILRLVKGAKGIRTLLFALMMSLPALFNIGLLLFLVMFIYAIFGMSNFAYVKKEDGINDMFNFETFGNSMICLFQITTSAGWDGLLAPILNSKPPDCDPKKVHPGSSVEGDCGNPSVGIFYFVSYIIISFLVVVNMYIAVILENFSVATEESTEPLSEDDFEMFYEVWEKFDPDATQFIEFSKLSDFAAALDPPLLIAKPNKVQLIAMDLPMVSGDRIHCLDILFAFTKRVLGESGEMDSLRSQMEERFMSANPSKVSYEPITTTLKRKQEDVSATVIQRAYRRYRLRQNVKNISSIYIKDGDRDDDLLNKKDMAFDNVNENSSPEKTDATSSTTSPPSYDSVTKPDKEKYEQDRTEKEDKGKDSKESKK

SMILES | IC50 [µM]
O=C(c1ccc2cc(Oc3ccc(C(F)(F)F)cn3)ccc2n1)N1CCN[C@H](CO)C1 [Example 276, [(3S)-3-(hydroxymethyl)piperazin-1-yl](6-{[5-(trifluoromethyl)pyridin-2-yl]oxy}quinolin-2-yl)methanone] | 3.1

Same assay, conditions: HEK293 cells stably expressing recombinant human Nav1.7; veratridine + scorpion venom depolarization; read-out: FRET-Membrane Potential Nav1.7 IC50

SMILES | IC50 [µM]
O=C(c1ccc2cc(Oc3ccc(C(F)(F)F)cn3)ccc2n1)N1C[C@@H]2C[C@@H](CO)[C@H]1C2 [Example 257, [(1R,4R,6R)-6-(hydroxymethyl)-2-azabicyclo[2.2.1]hept-2-yl](6-{[5-(trifluoromethyl)pyridin-2-yl]oxy}quinolin-2-yl)methanone] | 10.6
O=C(c1ccc2cc(Oc3ccc(C(F)(F)F)cn3)ccc2n1)N1C[C@@H]2C[C@H](CO)[C@H]1C2 [Example 258, [(1R,4R,6S)-6-(hydroxymethyl)-2-azabicyclo[2.2.1]hept-2-yl](6-{[5-(trifluoromethyl)pyridin-2-yl]oxy}quinolin-2-yl)methanone] | 6.13
CN1CCCN(C(=O)c2ccc3cc(Oc4ccc(C(F)(F)F)cn4)ccc3n2)CC1 [Example 260, (4-methyl-1,4-diazepan-1-yl)(6-{[5-(trifluoromethyl)pyridin-2-yl]oxy}quinolin-2-yl)methanone] | 1.04
O=C(c1ccc2cc(Oc3ccc(C(F)(F)F)cn3)ccc2n1)N1CCN(C2CC2)CC1 [Example 261, (4-cyclopropylpiperazin-1-yl)(6-{[5-(trifluoromethyl)pyridin-2-yl]oxy}quinolin-2-yl)methanone] | 6.31
O=C(c1ccc2cc(Oc3ccc(C(F)(F)F)cn3)ccc2n1)N1CCN(c2ccccc2)CC1 [Example 262, (4-phenylpiperazin-1-yl)(6-{[5-(trifluoromethyl)pyridin-2-yl]oxy}quinolin-2-yl)methanone] | 2.09
CC(C)[C@@H]1CN(C(=O)c2ccc3cc(Oc4ccc(C(F)(F)F)cn4)ccc3n2)CCN1 [Example 263, [(3R)-3-isopropylpiperazin-1-yl](6-{[5-(trifluoromethyl)pyridin-2-yl]oxy}quinolin-2-yl)methanone] | 0.402
O=C(NC1CCNCC1)c1ccc2cc(Oc3ccc(C(F)(F)F)cn3)ccc2n1 [Example 264, N-(piperidin-4-yl)-6-{[5-(trifluoromethyl)pyridin-2-yl]oxy}quinoline-2-carboxamide] | 3.21
O=C(c1ccc2cc(Oc3ccc(C(F)(F)F)cn3)ccc2n1)N1CCC(CO)CC1 [Example 265, [4-(hydroxymethyl)piperidin-1-yl](6-{[5-(trifluoromethyl)pyridin-2-yl]oxy}quinolin-2-yl)methanone] | 3.45
O=C(c1ccc2cc(Oc3ccc(C(F)(F)F)cn3)ccc2n1)N1CCC(CO)C1 (centres unmarked) [Example 266, [3-(hydroxymethyl)pyrrolidin-1-yl](6-{[5-(trifluoromethyl)pyridin-2-yl]oxy}quinolin-2-yl)methanone] | 5.76
O=C(c1ccc2cc(Oc3ccc(C(F)(F)F)cn3)ccc2n1)N1CCN(c2cnccn2)CC1 [Example 268, [4-(pyrazin-2-yl)piperazin-1-yl](6-{[5-(trifluoromethyl)pyridin-2-yl]oxy}quinolin-2-yl)methanone] | 2.98
O=C(c1ccc2cc(Oc3ccc(C(F)(F)F)cn3)ccc2n1)N1CCN(c2cccnc2)CC1 [Example 269, [4-(pyridin-3-yl)piperazin-1-yl](6-{[5-(trifluoromethyl)pyridin-2-yl]oxy}quinolin-2-yl)methanone] | 3.07
O=C(c1ccc2cc(Oc3ccc(C(F)(F)F)cn3)ccc2n1)N1CCN(c2ncccn2)CC1 [Example 270, [4-(pyrimidin-2-yl)piperazin-1-yl](6-{[5-(trifluoromethyl)pyridin-2-yl]oxy}quinolin-2-yl)methanone] | 3.08
O=C(c1ccc2cc(Oc3ccc(C(F)(F)F)cn3)ccc2n1)N1CCN(c2ccc(Cl)cn2)CC1 [Example 272, [4-(5-chloropyridin-2-yl)piperazin-1-yl](6-{[5-(trifluoromethyl)pyridin-2-yl]oxy}quinolin-2-yl)methanone] | 2.99
CC[C@H]1CN(C(=O)c2ccc3cc(Oc4ccc(C(F)(F)F)cn4)ccc3n2)CCN1 [Example 273, [(3S)-3-ethylpiperazin-1-yl](6-{[5-(trifluoromethyl)pyridin-2-yl]oxy}quinolin-2-yl)methanone] | 0.488
CC(C)[C@H]1CN(C(=O)c2ccc3cc(Oc4ccc(C(F)(F)F)cn4)ccc3n2)CCN1 [Example 274, [(3S)-3-isopropylpiperazin-1-yl](6-{[5-(trifluoromethyl)pyridin-2-yl]oxy}quinolin-2-yl)methanone] | 0.304
CC(O)c1ccc(Oc2ccc3nc(C(=O)N4CCNCC4)ccc3c2)cc1 (centres unmarked) [Example 275, {6-[4-(1-hydroxyethyl)phenoxy]quinolin-2-yl}(piperazin-1-yl)methanone] | 11.4
CC(C)OC(=O)N1CCN(C(=O)c2ccc3cc(Oc4ccc(C(F)(F)F)cn4)ccc3n2)CC1 [Example 277, isopropyl 4-[(6-{[5-(trifluoromethyl)pyridin-2-yl]oxy}quinolin-2-yl)carbonyl]piperazine-1-carboxylate] | 3.09
O=C(c1ccc2cc(Oc3ccc(C(F)(F)F)cn3)ccc2n1)N1CCC12CNC2 [Example 279, 1,6-diazaspiro[3.3]hept-1-yl(6-{[5-(trifluoromethyl)pyridin-2-yl]oxy}quinolin-2-yl)methanone] | 5.68
O=C(c1ccc2cc(Oc3ccc(C(F)(F)F)cn3)ccc2n1)N1C[C@@H]2CCN[C@@H]2C1 [Example 280, (3 aS,6aS)-hexahydropyrrolo[3,4-b]pyrrol-5(1H)-yl(6-{[5-(trifluoromethyl)pyridin-2-yl]oxy}quinolin-2-yl)methanone] | 0.605
O=C(NN1CCOCC1)c1ccc2cc(Oc3ccc(C(F)(F)F)cn3)ccc2n1 [Example 281, N-(morpholin-4-yl)-6-{[5-(trifluoromethyl)pyridin-2-yl]oxy}quinoline-2-carboxamide] | 1.28
O=C(c1ccc2cc(Oc3ccc(C(F)(F)F)cn3)ccc2n1)N1CC[C@@H](O)C1 [Example 282, [(3R)-3-hydroxypyrrolidin-1-yl](6-{[5-(trifluoromethyl)pyridin-2-yl]oxy}quinolin-2-yl)methanone] | 8.52

Same assay, conditions: read-out: FRET-Membrane Potential Nav1.7 IC50

SMILES | IC50 [µM]
O=C(N[C@@H]1CC[C@@H]2CN(Cc3ccccc3)C[C@@H]21)c1ccc2cc(Oc3ccc(C(F)(F)F)cn3)ccc2n1 [Example 259, N-[(3aR,4R,6aS)-2-benzyloctahydrocyclopenta[c]pyrrol-4-yl]-6-{[5-(trifluoromethyl)pyridin-2-yl]oxy}quinoline-2-carboxamide] | 2.06
O=C(NC1CC2CCC(C1)N2)c1ccc2cc(Oc3ccc(C(F)(F)F)cn3)ccc2n1 (centres unmarked) [Example 267, N-(8-azabicyclo[3.2.1]oct-3-yl)-6-{[5-(trifluoromethyl)pyridin-2-yl]oxy}quinoline-2-carboxamide] | 10.2
O=C(c1ccc2cc(Oc3ccc(C(F)(F)F)cn3)ccc2n1)N1CCN(c2cccnn2)CC1 [Example 271, [4-(pyridazin-3-yl)piperazin-1-yl](6-{[5-(trifluoromethyl)pyridin-2-yl]oxy}quinolin-2-yl)methanone] | 11.2
O=C(c1ccc2cc(Oc3ccc(C(F)(F)F)cn3)ccc2n1)N1C[C@@H]2CN[C@@H]2C1 [Example 278, (1S,5S)-3,6-diazabicyclo[3.2.0]hept-3-yl(6-{[5-(trifluoromethyl)pyridin-2-yl]oxy}quinolin-2-yl)methanone] | 3.72
